Experimental data as given in article PMC9013261 (Bioorganic Chemistry, 2021).
≈ marks a conversion by molar mass, not a printed value.

Legend:
[1] = test system: Bacillus subtilis 168; assay: Broth microdilution antibacterial assay; type: cell-based; details: Bacillus subtilis, 168, read-out: MIC B. subtilis 168
[2] = test system: Staphylococcus epidermidis ATCC 35984 (methicillin-resistant); assay: Broth microdilution antibacterial assay; type: cell-based; details: ATCC35984, read-out: MIC S. epidermidis ATCC 35984
[3] = test system: Klebsiella pneumoniae ATCC 10031; assay: Broth microdilution antibacterial assay; type: cell-based; details: ATCC10031, read-out: MIC K. pneumonia ATCC 10031
[4] = biological target: 3CLpro of SARS-CoV-2 (Severe acute respiratory syndrome coronavirus 2, UniProt P0DTD1); assay: biochemical
[5] = test system: Pseudomonas aeruginosa PAO1 (chloramphenicol-resistant); assay: Broth microdilution antibacterial assay; type: cell-based; details: PAO1, read-out: MIC P. aeruginosa PAO1

With `CCCCCCCCCCCc1cc(O)cc(O)c1` [Compound 3, 5-undecyl-1,3-benzenediol] the MIC [1] was 1 µg/mL (≈ 3.78 µM), the MIC [2] was 2 µg/mL (≈ 7.56 µM) and the MIC [3] was 8 µg/mL (≈ 30.3 µM). The IC50 [4] was > 100 µM and the MIC [5] was > 64 µg/mL.

In the case of `CCCCCCCCCCCCCCc1cc(O)cc(O)c1` [Compound 5, 5-tetradecyl-1,3-benzenediol], the MIC [1] is reported as > 64 µg/mL, the MIC [2] is reported as > 64 µg/mL and the MIC [3] is reported as > 64 µg/mL. The IC50 [4] was > 100 µM and the MIC [5] was > 64 µg/mL.

In the case of `CCCCCCCC/C=C\CCCc1cc(O)cc(O)c1` [Compound 7, (Z)-5-(trideca-4-enyl)resorcinol], the MIC [1] is reported as 1 µg/mL (≈ 3.44 µM), the MIC [2] is reported as 4 µg/mL (≈ 13.8 µM) and the MIC [3] is reported as > 64 µg/mL. The IC50 [4] was > 100 µM and the MIC [5] was > 64 µg/mL.
